Test results from PubChem BioAssay AID2060510 (Molecular Pharmacology Branch, DTP, NCI, 2025).

System: 439559-082-T-J2-PDC spheroids viability
Assay: Anticancer human tumor 439559-082-T-J2-PDC patient-derived colon adenocarcinoma cell line growth inhibition [GQUAD]
Details: for IC50: curve of first compound; for viability, T/C: stronger effect = lower value; active = viability on the fitted dose curve at most 10% of control; inactive = the rest
From the text: DNA G-quadruplex Stabilizer Agents in Combinations in Complex Spheroids
A high-throughput screen of multi-cell type tumor spheroids was designed to identify active combinations of DNA G-quadruplex stabilizer agents and targeted small molecules. Complex spheroids include a stromal component modeled by human endothelial cells (HUVEC) and fibroblasts modeled by human mesenchymal stem cells (MSCs). The concentration ranges selected for each drug and investigational agent were based upon clinically achievable concentrations if the clinical Cmax of the agent was known.
Compounds. The drugs and investigational agents: pidnarulex (CX-5461; NSC782164), APTO-253 (NSC789042), BRACO-19 (NSC847499), peposertib (NSC802822), ceralasertib (NSC780249), elimusertib (NSC800525), camonsertib (NSC841442), AZD-1390 (NSC803789), olaparib (NSC753686), talazoparib (NSC767125), ART-558 (NSC835418), sotorasib (NSC818433), MRTX-1133 (NSC836407), SN-38 (NSC673596), topotecan (NSC609699), etoposide (NSC141540), doxorubicin (NSC123127), gemcitabine (NSC613327), 5-fluorouracil (NSC19893), paclitaxel (NSC125973), vemurafenib (NSC761431), panobinostat (NSC761190), R-306465 (JNJ-16241199; NSC773264), adavosertib (NSC754352), TP-3654 (NSC805149), carboplatin (NSC241240), KSQ-4279 (NSC840948), and staurosporine (NSC755774) were obtained from the National Cancer Institute (NCI) Developmental Therapeutics Program Chemical Repository (34). The FDA-approved anticancer drug set is available from the NCI Developmental Therapeutics Program. […] The stock solutions were prepared in dimethyl sulfoxide (DMSO, Sigma-Aldrich, St. Louis, MO, cat. D2650) at 800-fold the tested concentration and stored at -70 degrees C prior to their use. All drugs and investigational agents were tested over a range starting from a high concentration at or near the clinical Cmax and decreasing in half-log increments. If the clinical Cmax for an agent had not been determined, the highest concentration tested was 10 microM.
2.3 Cell Culture. All cells were maintained in an incubator at 37 degrees C and 5% CO2 with 95% humidity. The PDC lines were cultured according to standard operating procedures established by the NCI PDMR. All PDCs were thawed and cultured in Matrigel-coated flasks prepared with a working solution of 1X Ham's F-12 nutrient mix, without supplementation (Invitrogen, cat. 11765054), 100 U/mL penicillin-streptomycin (Invitrogen, cat. 15140122), and 2.5% Matrigel (Corning Inc., cat. 354248) for the first three passages. The 857933-349-R-J2-PDC line was cultured in 6C/Colon 1B media, which includes advanced DMEM/F-12 (Thermo Fisher Scientific, cat. 12634028), 10 mM HEPES (Thermo Fisher Scientific, cat. 15630080), 1X GlutaMAX supplement (Thermo Fisher Scientific, cat. 35050061), 0.1 mg/mL primocin (InvivoGen, cat. ant-pm-2), 10% defined fetal bovine serum, heat inactivated (HyClone Laboratories Inc., cat. SH30070.03HI), 50% L-WRN conditioned media (ATCC, cat. CRL-3276), 1.25 mM N-Acetyl-L-cysteine (Sigma-Aldrich, cat. A9165), 10 mM nicotinamide (Sigma-Aldrich, cat. N0636), 1X B-27 supplement (Thermo Fisher Scientific, cat. 17504044), 1X N-2 supplement (Thermo Fisher Scientific, cat. 17502048), 10 microM Y-27632 dihydrochloride (Tocris Bioscience, cat. 1254), and 50 ng/mL human EGF recombinant protein (Thermo Fisher Scientific, cat. PHG0311). The 485176-168-R4-J1-PDC line was cultured in Panc media, which includes all 6C/Colon 1B media components plus 100 ng/mL human FGF-10 (Thermo Fisher Scientific, cat. 100-26), 500 nM SB-431542 (Selleckchem, cat. S1067), and gastrin (Tocris, cat. 3006).
[…]

[1] = second compound 0.0316 µM, first compound 0.0316 µM
[2] = second compound 0.0316 µM, first compound 0.1 µM
[3] = second compound 0.0316 µM, first compound 0.316 µM
[4] = second compound 0.0316 µM, first compound 1 µM
[5] = second compound 0.0316 µM, first compound 3.16 µM
[6] = second compound 0.0316 µM, first compound 10 µM
[7] = second compound 0.1 µM, first compound 0.0316 µM
[8] = second compound 0.1 µM, first compound 0.1 µM
[9] = second compound 0.1 µM, first compound 0.316 µM
[10] = second compound 0.1 µM, first compound 1 µM
[11] = second compound 0.1 µM, first compound 3.16 µM
[12] = second compound 0.1 µM, first compound 10 µM
[13] = second compound 0.316 µM, first compound 0.0316 µM
[14] = second compound 0.316 µM, first compound 0.1 µM
[15] = second compound 0.316 µM, first compound 0.316 µM
[16] = second compound 0.316 µM, first compound 1 µM
[17] = second compound 0.316 µM, first compound 3.16 µM
[18] = second compound 0.316 µM, first compound 10 µM
[19] = second compound 1 µM, first compound 0.0316 µM
[20] = second compound 1 µM, first compound 0.1 µM
[21] = second compound 1 µM, first compound 0.316 µM
[22] = second compound 1 µM, first compound 1 µM
[23] = second compound 1 µM, first compound 3.16 µM
[24] = second compound 1 µM, first compound 10 µM
[25] = second compound 3.16 µM, first compound 0.0316 µM
[26] = second compound 3.16 µM, first compound 0.1 µM
[27] = second compound 3.16 µM, first compound 0.316 µM
[28] = second compound 3.16 µM, first compound 1 µM
[29] = second compound 3.16 µM, first compound 3.16 µM
[30] = second compound 3.16 µM, first compound 10 µM
[31] = second compound 10 µM, first compound 0.0316 µM
[32] = second compound 10 µM, first compound 0.1 µM
[33] = second compound 10 µM, first compound 0.316 µM
[34] = second compound 10 µM, first compound 1 µM
[35] = second compound 10 µM, first compound 3.16 µM
[36] = second compound 10 µM, first compound 10 µM
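Also: spheroids exposed to the agents for 7 days before readout.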
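For viability, T/C in this document: percent of luminescence signal in DMSO vehicle wells taken as 100% viability.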

COc1cc(C2c3cc4c(cc3C(OC3OC5COC(C)OC5C(O)C3O)C3COC(=O)C23)OCO4)cc(OC)c1O (stereo unspecified) + Cc1cnc(CNC(=O)c2c(=O)c3ccc(N4CCCN(C)CC4)nc3n3c2sc2ccccc23)cn1
> 10 µM: IC50 (second compound 0.0316 µM) | IC50 (second compound 0.1 µM) | IC50 (second compound 0.316 µM) | IC50 (second compound 1 µM) | IC50 (second compound 3.16 µM) | IC50 (second compound 10 µM)
inactive: viability, T/C [1] 92.8% | viability, T/C [2] 99.9% | viability, T/C [3] 93.4% | viability, T/C [4] 85.5% | viability, T/C [5] 84.1% | viability, T/C [6] 60.3% | viability, T/C [7] 86.2% | viability, T/C [8] 83.7% | viability, T/C [9] 85.1% | viability, T/C [10] 76.5% | viability, T/C [11] 80.5% | viability, T/C [12] 59.9% | viability, T/C [13] 94.4% | viability, T/C [14] 86.5% | viability, T/C [15] 81.4% | viability, T/C [16] 75.2% | viability, T/C [17] 70.2% | viability, T/C [18] 56.3% | viability, T/C [19] 74.8% | viability, T/C [20] 78.9% | viability, T/C [21] 70.6% | viability, T/C [22] 70% | viability, T/C [23] 64.8% | viability, T/C [24] 55.1% | viability, T/C [25] 63.6% | viability, T/C [26] 73.3% | viability, T/C [27] 66% | viability, T/C [28] 66.5% | viability, T/C [29] 66.2% | viability, T/C [30] 56.3% | viability, T/C [31] 72.3% | viability, T/C [32] 63.6% | viability, T/C [33] 62.5% | viability, T/C [34] 60.8% | viability, T/C [35] 59.8% | viability, T/C [36] 49.8%

Nc1ccn(C2OC(CO)C(O)C2(F)F)c(=O)n1 (stereo unspecified) + Cc1cnc(CNC(=O)c2c(=O)c3ccc(N4CCCN(C)CC4)nc3n3c2sc2ccccc23)cn1
inactive: viability, T/C [1] 87.8% | viability, T/C [2] 65.9% | viability, T/C [3] 41.4% | viability, T/C [4] 35.3% | viability, T/C [5] 27.3% | viability, T/C [6] 20.8% | viability, T/C [7] 81.4% | viability, T/C [8] 62.3% | viability, T/C [9] 43.4% | viability, T/C [10] 29.8% | viability, T/C [11] 27.8% | viability, T/C [12] 18.4% | viability, T/C [13] 84.2% | viability, T/C [14] 65.4% | viability, T/C [15] 42.9% | viability, T/C [16] 31.9% | viability, T/C [17] 25.4% | viability, T/C [18] 19.2% | viability, T/C [19] 74.3% | viability, T/C [20] 61.7% | viability, T/C [21] 37.4% | viability, T/C [22] 28.8% | viability, T/C [23] 26% | viability, T/C [24] 27.3% | viability, T/C [25] 66.9% | viability, T/C [26] 56.1% | viability, T/C [27] 43.5% | viability, T/C [28] 28.3% | viability, T/C [29] 25.7% | viability, T/C [30] 19.6% | viability, T/C [31] 67.2% | viability, T/C [32] 56.3% | viability, T/C [33] 39.3% | viability, T/C [34] 29.8% | viability, T/C [35] 24.6% | viability, T/C [36] 22.6%
0.213 µM: IC50 (second compound 0.1 µM)
0.234 µM: IC50 (second compound 0.0316 µM)
0.171 µM: IC50 (second compound 3.16 µM)
0.174 µM: IC50 (second compound 1 µM)
0.153 µM: IC50 (second compound 10 µM)
0.231 µM: IC50 (second compound 0.316 µM)

O=c1[nH]cc(F)c(=O)[nH]1 + Cc1cnc(CNC(=O)c2c(=O)c3ccc(N4CCCN(C)CC4)nc3n3c2sc2ccccc23)cn1
inactive: viability, T/C [1] 100% | viability, T/C [2] 102% | viability, T/C [3] 87.2% | viability, T/C [4] 74.5% | viability, T/C [5] 67% | viability, T/C [6] 63.6% | viability, T/C [7] 91.9% | viability, T/C [8] 96.4% | viability, T/C [9] 81.2% | viability, T/C [10] 72.9% | viability, T/C [11] 68.7% | viability, T/C [12] 67.4% | viability, T/C [13] 88.2% | viability, T/C [14] 90% | viability, T/C [15] 73.7% | viability, T/C [16] 63.5% | viability, T/C [17] 66.7% | viability, T/C [18] 66% | viability, T/C [19] 88.9% | viability, T/C [20] 73.6% | viability, T/C [21] 62.7% | viability, T/C [22] 59.9% | viability, T/C [23] 66.4% | viability, T/C [24] 65.2% | viability, T/C [25] 62.5% | viability, T/C [26] 68.3% | viability, T/C [27] 63% | viability, T/C [28] 58.4% | viability, T/C [29] 59.9% | viability, T/C [30] 52.7% | viability, T/C [31] 68.7% | viability, T/C [32] 66.3% | viability, T/C [33] 67.8% | viability, T/C [34] 57.8% | viability, T/C [35] 57.7% | viability, T/C [36] 58.3%
> 10 µM: IC50 (second compound 0.0316 µM) | IC50 (second compound 0.1 µM) | IC50 (second compound 0.316 µM) | IC50 (second compound 1 µM) | IC50 (second compound 3.16 µM) | IC50 (second compound 10 µM)
